Measured values as given in patent US5300298A, “Methods of treating obesity with purine related compounds” (The Pennsylvania Research Corporation, priority 1992, dated 1994).

Tests used:
Al adenosine receptor [1] = assay: Acute subcutaneous injection of BW1433, serum glycerol (whole body lipolysis); assay type: in vivo, Sprague Dawley rats; lean and obese Zucker rats; conditions: Sprague Dawley rats, 18 hour fasted, 60 min after subcutaneous injection, 0-10 mg/Kg
Method: FIG. 1: Serum glycerol levels 60 min after a subcutaneous injection of BW1433 (0-10 mg/Kg) in Sprague Dawley rats (SD) and lean and obese Zucker rats. Each point represents 3-4 animals in the case of SD rats and 3-10 or 4-10 in the case of lean and obese Zuckers, respectively.
(§1) My initial studies were carried out following acute subcutaneous injections of the drug into male Sprague Dawley rats and into lean and into obese Zucker rats. Blood samples (100 microliter) were taken from the tail of the rats and measurements made of serum glycerol^6. Glycerol is an end product of lipolysis and thus an excellent indicator of the rate of whole body lipolysis. […] I discovered that in the absence of the Formula I compound tested, serum glycerol levels only differ slightly when comparing lean and obese animals. Since there is 3-4 times more fat in the obese animal this is good evidence for sluggish lipolysis per g of fat in the obese. The obese animals however seem to mobilize the fat at an earlier time after removal of their food supply (Table 1), since after 6 hours of fasting the obese serum glycerol levels are much higher than the lean.
Next, I studied the effect of subcutaneous injections of BW1433 in 18 hour fasted animals. The results, shown in FIG. 1, support my initial postulation, that the Al adenosine receptor may be particularly active in obese animals. […]

Al adenosine receptor [2] = assay: Blockade by BW1433 of receptors activated with the agonist N-6 phenylisopropyladenosine (PIA), subcutaneous; assay type: in vivo, rat (Sprague Dawley, lean Zucker, obese Zucker); conditions: all three strains of rat
Method: Next, I studied the effect of subcutaneous injections of BW1433 in 18 hour fasted animals. The results, shown in FIG. 1, support my initial postulation, that the Al adenosine receptor may be particularly active in obese animals. […] To distinguish between these possibilities, the agonist N-6 phenylisopropyladenosine (PIA) was injected subcutaneously either alone or in combination with BW1433.

[3] = tested on: lean and obese Zucker rats; assay: Daily serum glycerol during chronic administration of BW1433 (Alzet mini osmotic pumps); assay type: in vivo
Method: FIG. 2: Daily serum glycerol levels during chronic administration of BW1433 in lean (L) and obese (F) Zucker rats. In the no drug group (V) n=5, in the D1 group (0.2 mg/Kg/hr) n=5, and in the D2 group (0.4 mg/Kg/hr) n=4.
(§2) Next, I studied the effect of chronic treatment with BW1433. For this purpose I employed 2 ml Alzet mini osmotic pumps. Each pump was loaded with 2 ml of a solution containing BW1433 or with vehicle (aqueous solution adjusted to pH II). The amount of BW1433 was adjusted so that the pump delivered either zero, 0.2 mg or 0.4 mg/Kg/hour to each animal. On the first day the animals had the pumps implanted and were given a priming (2 mg/Kg or 4 mg/Kg) dose of the antagonist. Blood was taken prior to surgery and six hours after the animals were removed from their food supply. On each subsequent day animals had free access to food and water overnight, then their food removed for six hours, and a blood sample taken.
(§3) In addition to taking blood samples for glycerol analysis, each animal was weighed every day for seven days. After seven days the animals were fasted overnight and a glucose tolerance test given The animals were then sacrificed and 1 ml blood sample taken for serum insulin and serum BW1433 determination drug levels. Insulin levels were measured with RIA kit (Diagnostic Products) and BW1433 levels were measured fluorometrically after HPLC separation at Burroughs Wellcome, Research Triangle Park, North Carolina. […] Nonetheless, when glucose tolerance curves were administered on day 7, drug-related differences could still be seen in all animals studied. […] This is illustrated more clearly in FIG. 4 where the area under the glucose tolerance curve is shown as a bar for each of the 6 groups of animals. […] FIG. 5 is a chart of the change in weight of treated and untreated lean and obese animals. […] The effect on weight change in each case was maximal at day 3, the day when the glycerol values peaked. Based on these remarkable results, the compounds of Formula I can be administered to obese warm-blooded animals as anti-obesity agents, or administered to farm animals to advantageously increase the ratio of muscle mass to fat therein.

[4] = tested on: lean and obese Zucker rats; assay: Glucose tolerance test after seven days of BW1433 administration; assay type: in vivo
Method: FIG. 3: Glucose tolerance test after seven days of BW1433 administration. Animals were fasted overnight before injection of 1.25 g/Kg glucose and samples taken 15, 30, 60 and 120 min for glucose determinations. The conditions are the same as those described in legend to FIG. 2 (Cont=V).
FIG. 4: A bar graph representing the area under the glucose tolerance curves of FIG. 3.
as §2
as §3, with “Based on these remarkable results, the compounds of Formula I can be administered to obese warm-blooded animals as anti-obesity agents, or administered to farm animals to advantageously increase the ratio of muscle mass to fat therein.” left out

[5] = Body weights during chronic administration of BW1433; assay type: in vivo, Zucker rats
Method: FIG. 5: Body weights of lean and obese Zucker rats during chronic administration of BW1433. The data are presented as a % of day 0 weight. Day 0 represents when the Alzet mini-pumps were implanted. The conditions are the same as those described in the legend to FIG. 2.
as §2
as §3, with “Based on these remarkable results, the compounds of Formula I can be administered to obese warm-blooded animals as anti-obesity agents, or administered to farm animals to advantageously increase the ratio of muscle mass to fat therein.” left out

[6] = Serum BW1433 level after chronic administration (fluorometric after HPLC separation); assay type: in vivo, Zucker rats; conditions: for concentration at 168 h: rat, serum, day 7
Method: as §3, with “Next, I studied the effect of chronic treatment with BW1433. For this purpose I employed 2 ml Alzet mini osmotic pumps. Each pump was loaded with 2 ml of a solution containing BW1433 or with vehicle (aqueous solution adjusted to pH II). The amount of BW1433 was adjusted so that the pump delivered either zero, 0.2 mg or 0.4 mg/Kg/hour to each animal. On the first day the animals had the pumps implanted and were given a priming (2 mg/Kg or 4 mg/Kg) dose of the antagonist. Blood was taken prior to surgery and six hours after the animals were removed from their food supply. On each subsequent day animals had free access to food and water overnight, then their food removed for six hours, and a blood sample taken. In addition” for “In addition”, “fat therein. […] The obese animals apparently have lower extracellular fluid volume per Kg body weight.” for “fat therein.”

[7] = tested on: lean and obese (fatty) Zucker rats; assay: Serum insulin after chronic administration of BW1433 (RIA kit); assay type: in vivo
Method: as §2, §3
The obese animals apparently have lower extracellular fluid volume per Kg body weight.

[8] = cited from earlier work
warm-blooded animal = assay: Example II: tested as BW1433 was tested in Example I (obesity; ratio of muscle mass to fat); assay type: in vivo, rats
Method: as §1, §2, §3

## CCCn1c(=O)c2nc(-c3ccc(/C=C/C(=O)O)cc3)[nH]c2n(CCC)c1=O [BW1433, (E)-4-(1,2,3,6-tetrahydro-2,6-dioxo-1,3-dipropyl-9H-purin-8-yl)cinnamic acid]
Al adenosine receptor [1]
  effect on serum glycerol: little or no effect
Al adenosine receptor [2]
  dose at which receptors could be effectively blocked: 1 to 2 mg/kg
[3]; chronic
  day when the glycerol values peaked: 3 days
[3]; day 7, chronic
  serum levels on day 7 (adaptation to the drug): all serum levels were similar on day 7
[3]; lean Zucker rats, chronic 0.2 or 0.4 mg/Kg/hour
  effect on serum glycerol level: did not effect the glycerol level
[3]; obese Zucker rats, chronic
  serum glycerol level, higher dose (0.4 mg/Kg) versus lower dose (0.2 mg/Kg): higher in the group with the higher dose of drug
[3]; obese Zucker rats, chronic 0.2 or 0.4 mg/Kg/hour
  serum glycerol level versus controls: much higher levels of glycerol than the controls
[4]; day 7, 1.25 g/Kg glucose
  glucose tolerance: improved glucose tolerance
[4]; lean and obese (fatty) animals, FIG. 4
  area under the glucose tolerance curves: does reduce the area under these curves
[4]; lean and obese Zucker rats, 1.25 g/Kg glucose intraperitoneal, day 7, dose dependence
  area under the glucose tolerance curve: smaller, the larger the dose
[5]; lean Zucker rats
  growth or weight gain: increased growth or weight gain
[5]; lean and obese
  day of maximal effect on weight change: 3 days
[5]; obese Zucker rats
  growth or weight gain: decreased growth or weight gain
[6]; obese compared with lean Zucker rats
  serum drug level, obese versus lean: somewhat higher levels of drug than the lean
[6]; 0.2 mg/kg/h, Fatty, +BW1433, 0.2 mg/kg (pump, per hour)
  concentration at 168 h: 205 ± 22 ng/mL
[6]; 0.2 mg/kg/h, Lean, +BW1433, 0.2 mg/kg (pump, per hour)
  concentration at 168 h: 102 ± 20 ng/mL
[6]; 0.4 mg/kg/h, Fatty, +BW1433, 0.4 mg/kg (pump, per hour)
  concentration at 168 h: 624 ± 80 ng/mL
[6]; 0.4 mg/kg/h, Lean, +BW1433, 0.4 mg/kg (pump, per hour)
  concentration at 168 h: 366 ± 98 ng/mL
[7]; Fatty, +BW1433, 0.2 mg/kg (vehicle 54.06 ± 9.49)
  serum insulin: 52.81 ± 4.82 micro lu/ml
[7]; Fatty, +BW1433, 0.4 mg/kg (vehicle 54.06 ± 9.49)
  serum insulin: 58.06 ± 6.52 micro lu/ml
[7]; Lean, +BW1433, 0.2 mg/kg (vehicle 7.92 ± 0.92)
  serum insulin: 11.63 ± 1.62 micro lu/ml
[7]; Lean, +BW1433, 0.4 mg/kg (vehicle 7.92 ± 0.92)
  serum insulin: 10.67 ± 1.50 micro lu/ml
[8]
  oral administration and absorption: can be administered and absorbed orally

## CCCn1c(=O)c2nc(-c3ccc(/C=C/C(=O)O)cc3)[nH]c2n(Cc2ccccc2)c1=O [compound 25, (E)-4-(3-benzyl-1,2,3,6-tetrahydro-2,6-dioxo-1-propyl-9H-purin-8-yl)cinnamic acid]
warm-blooded animal
  activity in method of treating obesity in a warm-blooded animal and in increasing the ratio of muscle mass to fat in farm animals: active and effective
